In one assay the target is T1, human GPR40 (A2 site) (Homo sapiens, UniProt O14842).
T1 construct: full length recombinant human GPR40 (GPR40) cDNA; expressed in transfected cells; host or cells: HEK 293, stably transfected; crude cell surface membranes
Put plainly: A2 site radioligand binding with [3H]-AM-1638. As to conditions: Supplementary Table 1; read-out: Human GPR40 Binding to A2 Ki. On the procedure: (§1) Crude cell surface membranes were prepared from human embryonic kidney 293 (HEK 293) cells stably transfected (for the wild type) or transiently transfected (for the mutants and corresponding wild type) with full length recombinant human GPR40 (GPR40) cDNA, using differential centrifugation methods.
A2 Site Binding. 10 µL of compound diluted in 100% DMSO and 90 µL of Assay Buffer (50 mM Tris-HCl, pH 7.5, 10 mM CaCl2, 10 mM MgCl2, 0.1% w/v Bacitracin, 2.5% w/v dextran charcoal-treated FBS) were added to a deep 96-well polypropylene assay plate (Beckman Coulter). Two hundred μl of [^3H]-AM-1638 (84 Ci/mmol, Quotient Bioresearch Radiochemicals, Ltd.; 0.5 nM final concentration) and 200 µL of GPR40 membranes (5 µg/well), both diluted in Assay Buffer, were added to the assay plate, followed by a 1 min shake and a 1 h incubation at room temperature (22 °C).
(§2) Assays were terminated by filtration through GF/C glass fiber filtermats (Perkin Elmer) presoaked in 50 mM Tris–HCl, pH 7.5, using a Mach III cell harvester (TomTec). Filtermats were washed two times with 5 mL of ice-cold 50 mM Tris–HCl, pH 7.5 buffer, dried 1 h in a convection oven at 60 °C and embedded with Meltilex A solid scintillant (Perkin Elmer). Radioactivity was determined as counts per min (cpm) using a Trilux Microbeta plate scintillation counter (Perkin Elmer).

A further assay concerns the target T2, human GPR40 (A1 site) (Homo sapiens, UniProt O14842).
T2 construct: full length recombinant human GPR40 (GPR40) cDNA; expressed in transfected cells; host or cells: HEK 293, stably transfected; crude cell surface membranes
Put plainly: A1 site radioligand binding with [3H]-TAK-875. The note with it: Supplementary Table 1. On the procedure:
as §1
A1 Site Binding. 10 µL of compound diluted in 100% DMSO and 90 µL of Assay Buffer (50 mM Tris-HCl, pH 7.5, 5 mM CaCl2, 5 mM MgCl2, 0.1% w/v fatty acid-free BSA) were added to a deep 96-well polypropylene assay plate (Beckman Coulter).
as §2

For assay [1], the target named is T3, human GPR40 (Homo sapiens, UniProt O14842).
T3 construct: HEK293 cells stably overexpressing full length human GPR40; expressed in transfected cells
T3 sequence (O14842 whole entry): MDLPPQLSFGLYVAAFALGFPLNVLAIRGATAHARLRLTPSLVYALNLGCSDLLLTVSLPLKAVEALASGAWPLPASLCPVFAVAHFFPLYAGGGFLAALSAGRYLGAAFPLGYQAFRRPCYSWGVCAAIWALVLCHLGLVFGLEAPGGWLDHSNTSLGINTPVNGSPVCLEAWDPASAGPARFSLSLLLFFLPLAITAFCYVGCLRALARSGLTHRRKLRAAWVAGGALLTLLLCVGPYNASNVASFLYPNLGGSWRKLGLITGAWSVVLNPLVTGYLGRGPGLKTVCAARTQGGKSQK
Put plainly: Human GPR40 Calcium (Supplementary Table 1). The format is cell-based.

Assay [2] addresses T3, human GPR40. Put plainly: Human GPR40 b-arrestin. In kind it is cell-based.
The target of the next assay is Mouse GPR40 (Mus musculus, UniProt Q76JU9). Put plainly: Mouse GPR40 b-arrestin. In kind it is cell-based.
Chain of Mouse GPR40 (Q76JU9 whole entry): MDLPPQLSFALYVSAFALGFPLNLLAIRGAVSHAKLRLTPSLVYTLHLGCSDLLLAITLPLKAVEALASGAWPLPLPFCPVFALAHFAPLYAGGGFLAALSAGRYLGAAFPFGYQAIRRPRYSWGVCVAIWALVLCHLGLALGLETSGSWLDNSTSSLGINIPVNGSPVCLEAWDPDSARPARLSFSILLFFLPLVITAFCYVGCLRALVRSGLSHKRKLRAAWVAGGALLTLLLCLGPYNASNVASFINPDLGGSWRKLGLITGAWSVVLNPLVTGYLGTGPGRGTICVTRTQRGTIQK
Another assay has as its target Rat GPR40 (Rattus norvegicus, UniProt Q8K3T4). Put plainly: Rat GPR40 b-arrestin. The format is cell-based.
The target of assay [3] is T3, human GPR40. Put plainly: Human GPR40 IP1. The format is cell-based.
For assay [4], the target named is T4, Human GPR120 (Homo sapiens, UniProt Q5NUL3).
T4 sequence (Q5NUL3 1-361): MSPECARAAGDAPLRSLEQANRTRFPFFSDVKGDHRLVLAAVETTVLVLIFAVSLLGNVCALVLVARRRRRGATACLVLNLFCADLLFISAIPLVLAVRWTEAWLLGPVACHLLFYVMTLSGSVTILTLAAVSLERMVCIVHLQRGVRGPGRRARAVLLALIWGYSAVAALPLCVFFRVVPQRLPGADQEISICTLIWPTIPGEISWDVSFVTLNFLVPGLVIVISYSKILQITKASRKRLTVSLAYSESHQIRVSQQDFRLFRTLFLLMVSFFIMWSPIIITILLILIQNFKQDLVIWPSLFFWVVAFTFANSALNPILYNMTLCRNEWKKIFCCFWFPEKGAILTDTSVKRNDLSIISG
The assay is described as follows: Human GPR120 binding. The note with it: Supplementary Table 1.

Assay [5] has as its target T4, Human GPR120. Put plainly: Human GPR120 Calcium (FLIPR). In kind it is cell-based. As to conditions: Supplementary Table 1.
The target of assay [6] is T4, Human GPR120. Put plainly: Human GPR120 b-arrestin. As to conditions: Supplementary Table 1. In kind it is cell-based.
The target of the next assay is T5, Mouse GPR120 (Mus musculus, UniProt Q7TMA4).
T5 sequence (Q7TMA4 1-361): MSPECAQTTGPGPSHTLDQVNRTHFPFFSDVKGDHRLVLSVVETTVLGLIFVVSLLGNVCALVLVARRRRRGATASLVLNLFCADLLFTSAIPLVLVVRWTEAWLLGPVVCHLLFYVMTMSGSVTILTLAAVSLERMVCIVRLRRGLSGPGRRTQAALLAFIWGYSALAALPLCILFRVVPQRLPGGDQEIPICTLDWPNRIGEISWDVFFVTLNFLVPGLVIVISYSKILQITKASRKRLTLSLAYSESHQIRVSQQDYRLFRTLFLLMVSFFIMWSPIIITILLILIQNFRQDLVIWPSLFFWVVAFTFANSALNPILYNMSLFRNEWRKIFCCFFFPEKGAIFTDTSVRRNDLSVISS
Put plainly: Mouse GPR120 b-arrestin. The format is cell-based. As to conditions: Supplementary Table 1.

A further assay deals with T6, human PPARalpha (Homo sapiens, UniProt Q07869).
T6 sequence (Q07869 1-468): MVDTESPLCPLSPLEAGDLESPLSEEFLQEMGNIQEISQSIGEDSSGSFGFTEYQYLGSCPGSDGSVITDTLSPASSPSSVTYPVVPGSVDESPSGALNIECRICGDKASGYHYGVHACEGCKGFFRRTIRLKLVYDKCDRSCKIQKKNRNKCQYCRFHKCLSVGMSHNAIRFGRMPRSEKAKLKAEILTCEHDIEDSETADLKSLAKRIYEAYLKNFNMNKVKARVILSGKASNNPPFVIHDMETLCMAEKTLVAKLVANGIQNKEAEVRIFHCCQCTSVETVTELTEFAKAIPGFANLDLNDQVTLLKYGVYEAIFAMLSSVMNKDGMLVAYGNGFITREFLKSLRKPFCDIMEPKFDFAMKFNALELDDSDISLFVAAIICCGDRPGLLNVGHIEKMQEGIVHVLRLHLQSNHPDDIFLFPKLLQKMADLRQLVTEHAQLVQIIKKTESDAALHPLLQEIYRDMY
The assay is described as follows: human PPARalpha binding. As to conditions: Supplementary Table 1.

In another assay the target is T7, human PPARdelta (Homo sapiens, UniProt Q03181).
T7 sequence (Q03181 1-441): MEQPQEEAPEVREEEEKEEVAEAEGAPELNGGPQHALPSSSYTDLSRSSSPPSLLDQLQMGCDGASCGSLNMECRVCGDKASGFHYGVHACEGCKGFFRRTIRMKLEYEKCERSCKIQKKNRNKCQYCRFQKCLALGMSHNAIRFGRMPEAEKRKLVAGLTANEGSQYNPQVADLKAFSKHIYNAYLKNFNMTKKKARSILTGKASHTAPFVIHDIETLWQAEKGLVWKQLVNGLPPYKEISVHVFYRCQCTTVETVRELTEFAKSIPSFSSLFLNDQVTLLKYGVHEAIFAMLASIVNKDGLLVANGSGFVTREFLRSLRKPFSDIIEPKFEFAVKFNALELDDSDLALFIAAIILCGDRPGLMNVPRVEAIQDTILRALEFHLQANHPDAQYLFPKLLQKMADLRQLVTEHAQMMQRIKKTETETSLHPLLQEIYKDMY
Put plainly: human PPARdelta binding. The note with it: Supplementary Table 1.

In the next assay the target is T8, human PPARgama (Homo sapiens, UniProt P37231).
T8 sequence (P37231 1-505): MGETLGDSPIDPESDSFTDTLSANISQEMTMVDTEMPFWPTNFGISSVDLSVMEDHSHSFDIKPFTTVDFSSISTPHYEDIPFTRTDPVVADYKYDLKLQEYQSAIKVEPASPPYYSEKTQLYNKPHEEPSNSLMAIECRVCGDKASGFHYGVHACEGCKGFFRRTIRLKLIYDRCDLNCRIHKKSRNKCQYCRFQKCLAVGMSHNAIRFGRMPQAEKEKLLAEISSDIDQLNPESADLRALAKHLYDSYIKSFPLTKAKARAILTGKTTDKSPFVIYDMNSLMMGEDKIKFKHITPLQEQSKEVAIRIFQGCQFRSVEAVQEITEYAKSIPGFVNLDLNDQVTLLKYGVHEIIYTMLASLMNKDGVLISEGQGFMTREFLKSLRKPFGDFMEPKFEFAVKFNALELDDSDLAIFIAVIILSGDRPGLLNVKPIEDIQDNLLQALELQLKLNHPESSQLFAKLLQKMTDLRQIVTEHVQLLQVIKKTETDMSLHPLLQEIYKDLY
Put plainly: human PPARgamma binding. As to conditions: Supplementary Table 1.

In assay [7] the test system is GPR40 knock-out (KO) mice. The assay is described as follows: IPGTT in GPR40 knock-out mice. The format is in vivo, mouse. The note with it: high dose of compound 1. The method, then:
Nine to ten week old male ICR mice (Envigo) and GPR40 KO mice (Taconic) were used. The day before an IPGTT (~1600), animals were fasted in clean cages. The following morning (~0800), animals were randomized on fasting glucose and body weight (N = 6 per group). Mice were orally administered a test article or vehicle 60 min prior to an intraperitoneal (IP) injection of glucose (2g/kg). Blood glucose levels were determined by a glucometer from tail bleeds taken at 0, 15, 30, 60, and 120 min after the glucose challenge. An average of two readings were reported at each time point. Also, blood samples were collected into serum tubes at 0, 3, 6, and 15 min post glucose injection for insulin measurement. Serum tubes were centrifuged at 3000g for 5 min and serum transferred into 96-well plates for insulin analysis by a Mesoscale rat/mouse insulin assay.

In a further assay the test system is GPR40 KO mice. Put plainly: OGTT in GPR40 KO mice. The format is in vivo, mouse. The note with it: high dose of compound 1. The method, then: Eight to thirteen week old male C57BL/6 or KO mice were used. The day before the study, at 1600 hours, animals were transferred into clean cages and food was removed. The following morning (~0800 hours), mice were randomized by block randomization to treatment groups (N = 5–7 per group) so each group had similar mean and standard deviation of body weight and blood glucose. […] Animals were dosed with vehicle (0.5% MC/0.25% Tween-80) or the test article by oral gavage. Group allocations were not blinded from the experimenters who collected the data. After 60 min compound treatment animals were then given an oral gavage of glucose (2 g/kg). At 0, 15, 30, 60, and 120 min post oral glucose, two glucose readings via glucometers were obtained. The average of two glucose readings was reported at each time point. Data were expressed as mean±standard error (s.e.m.). Blood glucose values were analyzed using ANOVA with repeated measures. Cook’s distance was also calculated from linear regression. All animals were included in the analysis with their individual averaged Cook’s distance < 1. Dunnett’s comparison was performed at each time point by R program. Significance is denoted at p < 0.05.

By Ki is commonly meant a dissociation constant, usually derived from enzyme kinetics or from competition with a known ligand. In general, EC50 refers to the concentration giving half of the maximal effect. One may read the Emax as the maximal effect, on the per cent scale that the assay sets. One may read the IC50 as the concentration that inhibits the measured activity by half. Read a high IC50 as a need for much substance.

Chain of Rat GPR40 (Q8K3T4 whole entry): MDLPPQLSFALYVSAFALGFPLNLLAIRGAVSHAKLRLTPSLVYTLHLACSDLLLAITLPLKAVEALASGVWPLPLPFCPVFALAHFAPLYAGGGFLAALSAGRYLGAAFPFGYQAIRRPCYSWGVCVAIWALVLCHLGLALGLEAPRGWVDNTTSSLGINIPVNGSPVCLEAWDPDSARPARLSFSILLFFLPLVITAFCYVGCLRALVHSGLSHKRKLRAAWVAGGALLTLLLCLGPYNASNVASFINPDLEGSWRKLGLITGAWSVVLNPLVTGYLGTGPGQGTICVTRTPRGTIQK
T1 sequence (O14842 whole entry): as the sequence (O14842 whole entry) above
T2 sequence (O14842 whole entry): as above

Regarding `CC#C[C@@H](CC(=O)O)c1ccc(OCc2ccc(CN3CCC4(C=Cc5ccccc54)CC3)cc2)cc1` [LY2881835], the Ki at human GPR40 (A2 site) is greater than 3720 nM; on human GPR40 (A1 site) it was 4.7 nM; on Human GPR120 [4], greater than 100000 nM; at human PPARalpha, greater than 10000 nM; at human PPARgama it was greater than 10000 nM. Besides, the EC50 was 9.1 nM on human GPR40 [1]; 8.7 nM at human GPR40 [2]; 0.8 nM at Mouse GPR40; 2 nM at Rat GPR40; 1.24 nM at human GPR40 [3]; greater than 50000 nM on Human GPR120 [5]. Moreover, the EC50 is greater than 100000 nM on Human GPR120 [6] and greater than 50000 nM at Mouse GPR120. Moreover, the maximum response (Emax) came to 62% on human GPR40 [1]; 137% at human GPR40 [2]; 133% at Mouse GPR40; 124% on Rat GPR40; 162% at human GPR40 [3]. In addition, the IC50 on human PPARdelta was greater than 10000 nM.
Take semaglutide [reference compound]: in assay [7], the “glucose lowering in IPGTT, GPR40 KO” value is “can be triggered” and the “insulin secretion in IPGTT, GPR40 KO” value was “can be triggered”.
Take `COc1ccc(F)c(-c2ccc(COc3cccc([C@@H](CC(=O)O)C4CC4)c3)cc2C2=CCCC2(C)C)c1` [AM-1638]: the Ki at human GPR40 (A2 site) was 1.4 nM; on human GPR40 (A1 site) it was greater than 6910 nM; at human PPARalpha, 3170 nM; at human PPARgama it was greater than 10000 nM. Further, the EC50 is 1.7 nM on human GPR40 [1]; 16 nM on human GPR40 [2]; 22.7 nM on Mouse GPR40; 105 nM on Rat GPR40; 0.25 nM at human GPR40 [3]; 2870 nM on Human GPR120 [5]. The maximal response (Emax) at human GPR40 [1] amounted to 98%; at human GPR40 [2], 153%; on Mouse GPR40, 112%; on Rat GPR40 it was 113%; at human GPR40 [3], 197%; on Human GPR120 [5], 63%. The molecule further registered an IC50 at human PPARdelta greater than 10000 nM.
In the case of `N[C@@H](CC(=O)N1CCn2c(nnc2C(F)(F)F)C1)Cc1cc(F)c(F)cc1F` [sitagliptin, reference compound], in the assay with GPR40 KO mice, the “blood glucose in OGTT, GPR40 KO” value was “respond to glucose lowering”.
